Source: EP0474580B1, “Use of 1-[3-(dimethylamino)propyl]-1-phenylphthalenes for the treatment of cerebrovascular disorders” (priority 1990, dated 1992)
Marks after values point to notes of the source that are not given here.

Columns and labels:
[1] = test system: ischemia induced hippocampal neuronal damage; experiment: Ischemia-induced hippocampal death in gerbils; format: in vivo, Mongolian gerbils; conditions: for Survival neurons/mm mean: counted along CA1 after seven days; for protective effect against neuronal lesions: vs vehicle
Experimental: Test compounds were administered intraperitoneally to Male Mongolian gerbils 30 min before carotid occlusion. Carotid occlusion time was 5 min . Seven days after recovery, the animals were killed, brains removed, sectioned and surviving neurons were counted along CA1 in the hippocampus.

[2] = test system: moderate dementia of Alzheimer's type (AD/SDAT) or multi-infarct dementia (MID); conditions: patients with moderate AD/SDAT or MID; Nyth et al. 1988/1990; cited from earlier work
[3] = Toxicity study, oral administration in rats; format: in vivo; conditions: 350 mg/kg orally, male and female SD rats, observed for one week
Source text: In toxicity studies male and female SD rats ranging in weight from 170 g to 200 g were used one day after fasting.

[4] = test system: carbon dioxide-induced amnesia; experiment: Carbon dioxide-induced amnesia in rats (one-trial passive avoidance test); format: in vivo, Sprague-Dawley (CD) rats; conditions: for group mean 'step-through' times: oral
Source text: The test employed was a one-trial passive avoidance test in rats, using carbon dioxide asphyxiation to induce amnesia. Female Sprague-Dawley (CD) rats (A. Tick & Son Ltd.) in the body weight range 160-180g were used for the study. The one-trial passive avoidance apparatus consisted of a 32 x 32 x 32 cm chamber with opaque walls and a metal grid floor. A 6 cm wide , 25 cm long runway protruded from the front wall of the chamber. The runway was illuminated while the chamber was dark. When placed on the runway, a rat could enter the chamber through a 6 x 6 cm opening. A scrambled footshock could be delivered through the metal grid floor of the chamber. On the first day of the experiment, the rats received three pre-treatment training trials, during which each animal was placed on the end of the runway and the time taken to enter the chamber (the 'step-through' latency) was determined. On the second day of the experiment, groups of 10 animals were treated p.o. with test compound dissolved in saline or with saline. One hour after administration, an acquisition trial was performed. This was similar to a training trial, except that the rats received a footshock of 1.0 mA for 10 s commencing 10 s after entering the chamber. Immediately after the application of the footshock the animals were subjected to amnesic treatment. Amnesic treatment consisted of placing the rats in a box filled with carbon dioxide until respiratory arrest occurred; the rats were then revived by artificial respiration. 24 Hours after the acquisition trial, a single retrieval trial was given to each rat and the time taken to enter the chamber ('step-through' latency) was recorded for each animal.

KCN-induced coma = KCN-induced coma in mice; format: in vivo, mice (Crj:ICR); conditions: for coma time: vs vehicle
Experimental: Male mice (Crj:ICR) weighing 20-30 g were used. The mice were fasted for one day. The drugs, dissolved in saline, were injected intraperitoneally. 30 min after the injection, KCN, dissolved in saline, was injected intravenously at a dose of 1.3 mg/kg. The duration of disappearance of righting reflex was measured as coma time.

[5] = test system: passive avoidance in ischemic gerbils; experiment: Step-down passive avoidance in ischemic gerbils; format: in vivo; conditions: for Step-down latency [log(s)] Mean: ischemic gerbils, testing phase (max. 60 s); for latency of ischemic gerbils (testing phase): vs ischemic control
Experimental: The test employed was step-down passive avoidance in gerbils treated with test compounds prior to occlusion of carotid arteries followed by acquisition trial (training phase).
Test compounds were administered intraperitoneally to gerbils 30 min prior to carotid occlusion or ketamine was administered intraperitoneally 10 min prior to carotid occlusion. The gerbils were anesthetized with 2% halothane contained in a mixture of 70% nitrogen and 30% oxygen. The right and left common carotid arteries were occluded for 5 min. The gerbils were trained for 5 min in a step-down type passive avoidance chamber (16x16x20 cm) two days after induced ischemia. Each gerbil was placed on a safety platform (6x16x20 cm) in the chamber and received a series of mild foot shocks (0.1 mA for 3 s every 6 s), when the gerbil stepped down to a floor made of metal rods. Gerbils were returned to the safety platform for testing 24 h later and their step-down latencies to the grid floor were recorded (max. 60 s). RESULTS

[6] = test system: vascular dementia (VD, incl. MID); conditions: patients with vascular dementia (VD, incl. MID); Nyth et al. 1989; cited from earlier work
[7] = test system: depression associated with Alzheimer's disease; conditions: C.G. Gottfries, Psychopharmacology, 1988; cited from earlier work
[8] = test system: ischemia-induced death in bilateral carotid arterial ligation (BCAL); experiment: Brain ischemia-induced death in mice (bilateral carotid arterial ligation); format: in vivo, ICR MICE
Experimental: Male ICR MICE (Charles River) weighing 30 - 40 g were used after they were fasted for 1 day.
[…] Surviving mice were observed over 4 h.

CN(C)CCCC1(c2ccc(F)cc2)OCc2cc(C#N)ccc21 (stereo not drawn) [Citalopram, citalopram]
Survival neurons/mm mean ([1]; 20 mg/kg i.p. 30 min before 5 min carotid occlusion): 38.0 neurons/mm | protective effect against neuronal lesions ([1]; 20 mg/kg): weak but non-significant protective effect | Survival neurons/mm mean ([1]; 40 mg/kg i.p. 30 min before 5 min carotid occlusion): 95.8 neurons/mm | protective effect against neuronal lesions ([1]; 40 mg/kg): significant (p < 0.05 ) protective effect | effect on intellectual functions [2]: did not appear to have effect | emotional lability, motivation, confusion, fear-panic, irritation, reduced mood and restlessness [2]: significant improvements | deaths [3]: no deaths were observed | Latency ([4]; 5 mg/kg p.o. one hour before acquisition trial, CO2 treatment +, retrieval trial 24 h later (max. 180 s)): 31.2 s | Latency (s) ([4]; 10 mg/kg p.o. one hour before acquisition trial, CO2 treatment +, retrieval trial 24 h later (max. 180 s)): 77.2** s | Latency (s) ([4]; 20 mg/kg p.o. one hour before acquisition trial, CO2 treatment +, retrieval trial 24 h later (max. 180 s)): 114.3*** s | group mean 'step-through' times ([4]; 2 highest doses tested (i.e. 20 and 40 mg/kg)): marked and highly significant increase | group mean 'step-through' times ([4]; all doses tested, vs saline-treated control group): dose-related increases | Coma time (s) Mean (KCN-induced coma; 1.25 mg/kg i.p. 30 min before KCN 1.3 mg/kg i.v.): 38.5 s | Coma time (s) Mean (KCN-induced coma; 2.5 mg/kg i.p. 30 min before KCN 1.3 mg/kg i.v.): 33.2 s | Coma time (s) Mean (KCN-induced coma; 5 mg/kg i.p. 30 min before KCN 1.3 mg/kg i.v.): 35.0 s | Coma time (s) Mean (KCN-induced coma; 10 mg/kg i.p. 30 min before KCN 1.3 mg/kg i.v.): 27.4 s | coma time (KCN-induced coma; 10 mg/kg intraperitoneal): significantly reduced coma time | Step-down latency [log(s)] Mean ([5]; 20 mg/kg i.p. 30 min prior to carotid occlusion): 1.386 log(s) | latency of ischemic gerbils (testing phase) ([5]; 20 mg/kg): significantly increased the latency | emotional disturbances [6]: no significant improvement | effect against depression associated with Alzheimer's disease [7]: effective

CC(C(O)c1ccc(O)cc1)N1CCC(Cc2ccccc2)CC1 (stereo not drawn) [Ifenprodil]
Survival rate (%) 2 h after BCAL ([8]; 30 mg/kg,p.o., 30 min prior to ligation, 2 h after BCAL): 47** % | Survival rate (%) 4 h after BCAL ([8]; 30 mg/kg,p.o., 30 min prior to ligation, 4 h after BCAL): 20% | ischemia-induced death / survival rate 2 h after ligation ([8]; 30 mg/kg, 2 h after bilateral carotid arterial ligation, vs saline): significantly increased survival rate | ischemia-induced death / survival rate 4 h after ligation ([8]; 30 mg/kg, 4 h after bilateral carotid arterial ligation, vs saline): did not significantly increase survival rate

C1=Cc2cccc(OCC3CNCCO3)c2C1 (stereo not drawn) [Indeloxazine, reference compound]
Coma time (s) Mean (KCN-induced coma; 20 mg/kg i.p. 30 min before KCN 1.3 mg/kg i.v.): 13.8 s | coma time (KCN-induced coma; 20 mg/kg): significantly reduced the coma time | Step-down latency [log(s)] Mean ([5]; 40 mg/kg i.p. 30 min prior to carotid occlusion): 1.085 log(s) | latency of ischemic gerbils (testing phase) ([5]; 40 mg/kg): not significantly different

CNC1(c2ccccc2Cl)CCCCC1=O (stereo not drawn) [Ketamine, reference compound]
Survival neurons/mm mean ([1]; 100 mg/kg i.p. before 5 min carotid occlusion): 174.5 neurons/mm | protective effect against neuronal lesions ([1]; 100 mg/kg): significant (p < 0.01) protective effect | Step-down latency [log(s)] Mean ([5]; 120 mg/kg i.p. 10 min prior to carotid occlusion): 1.348 log(s) | latency of ischemic gerbils (testing phase) ([5]; 120 mg/kg): significantly increased the latency

NC(=O)CN1CCCC1=O [Piracetam, reference compound]
Latency (s) ([4]; 300 mg/kg p.o. one hour before acquisition trial, CO2 treatment +, retrieval trial 24 h later (max. 180 s)): 108.8*** s | time of entry ('step-through' latency) compared with vehicle ([4]; oral doses of 40 or 1000 mg/kg, indicates no marked muscle incoordination or CNS effects): no significant differences | 'step-through' latencies ([4]; piracetam treatment, dose not given): statistically significantly longer
